# In patent US20200181101A1, “BENZAMIDE INHIBITORS OF BACTERIAL LIPOPROTEIN SIGNAL PEPTIDASE” (The Scripps Research Institute, priority 2017, published 2020):
# “Also recorded” adds a separate entry of the source. Read-outs that look alike come from different tables or passages of the source. Square brackets hold non-standard residues; d marks the D form. Peptide text beside a SMILES is read from it. * marks the point of attachment. Sta = CC(C)C[C@H](N)[C@@H](O)CC(=O)O; Isovaleryl = CC(C)CC(=O)*
# Experiments:
# Lsp from E. coli = biological target: T1, Lsp from E. coli (Escherichia coli, UniProt P00804); assay: Lsp FRET activity assay, IC50 determination; format: biochemical; details: for IC50: read-out: IC50
# T1 construct: The full-length Lsp clone from E. coli (residues 1-164); His6 with enterokinase cleavage site (pET19b) (N); made in house; host or cells: E. coli Lemo21 (DE3), pET19b vector
# Experimental: […] […] 50 μM Lsp FRET substrate was subsequently added and the rate of substrate hydrolysis was measured by increase in fluorescence (excitation 355 nm, emission 495 nm) in 96-well plates on a PerkinElmer EnVision plate reader or Tecan Safire 2 microplate reader. Michaelis-Menten constants and […] were determined using GraphPad Prism software (GraphPad, Inc.).
# E. coli (ATCC25922) = assay: Bacteria growth assay, E. coli ATCC25922; format: cell-based
# Experimental: (§1) Effect of compounds on bacterial growth was measured using the method described previously with slight modifications^[1]. Colony suspension method was used to prepare bacteria suspension using McFarland Standard 0.5 to adjust the turbidity. Cells were introduced to two-fold serial dilutions of compound in a final volume of 105 μL with 5% DMSO. Mueller-Hinton broth (MH) or LB broth was used for E. coli ATCC25922 or E. coli DW37 and YX23, respectively. Plates were incubated at 37° C., and the OD600 was measured using a PerkinElmer EnVision plate reader after gentle shaking. Mutant E. coli (DW37 and YX23) were previously described.^[2] Globomycin was used as a positive control and the concentration-response curves of globomycin on bacteria growth (E. coli ATCC25922) is shown below (error bar: SD).
# E. coli DW37 = assay: Bacteria growth assay, isogenic parent strain DW37; format: cell-based; design: dose or concentration left out as unconfirmed; details: OD600 at 10 h
# Experimental: as §1
# E. coli YX23 [1] = assay: Bacteria growth assay, Lsp-inhibition resistant mutant YX23; format: cell-based; design: dose or concentration left out as unconfirmed; details: OD600 at 24 h
# Experimental: as §1
# E. coli YX23 [2] = details: literature [14]; cited from earlier work
# [3] = FRET-based assay, [Lsp] = 400 nM, mean (± SD)
# [4] = Table 7, linker variation, E = 100 nM
# T1 sequence (P00804 whole entry, the tested form may be a part): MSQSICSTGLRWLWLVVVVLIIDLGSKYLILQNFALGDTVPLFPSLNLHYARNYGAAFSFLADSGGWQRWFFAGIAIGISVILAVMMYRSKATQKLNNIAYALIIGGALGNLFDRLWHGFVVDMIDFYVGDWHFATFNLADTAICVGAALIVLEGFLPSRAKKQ
compound,measurement,setting,value
"COc1cc(C(=O)Nc2nnc(C3CCCCC3)s2)c([N+](=O)[O-])cc1OC [1c, N-(5-cyclohexyl-1,3,4-thiadiazol-2-yl)-4,5-dimethoxy-2-nitrobenzamide]","potency against Lsp, in words (SAR)",Lsp from E. coli,ablated the potency
same,IC50,Lsp from E. coli; [3],> 400 µM
same,"bacterial growth, in words",E. coli (ATCC25922); in combination with PMBN 8 mg/L,did not inhibit the bacterial growth
"CCC(CC)c1nnc(NC(=O)c2cc(OC)c(OC3CCCC3)cc2[N+](=O)[O-])s1 [1j, 4-(cyclopentyloxy)-5-methoxy-2-nitro-N-(5-(pentan-3-yl)-1,3,4-thiadiazol-2-yl)benzamide]",effect on cleaved substrate fluorescence,Lsp from E. coli,no effect
same,Hill constant,"Lsp from E. coli; [S]=50 μM, [Lsp]=100 nM",approximately 1
same,IC50,Lsp from E. coli,0.099 µM
same,growth of DW37,E. coli DW37,inhibited the growth
same,growth of YX23,E. coli YX23 [1],resistant; also recorded: did not inhibit the growth
same,"bacterial growth, in words",E. coli (ATCC25922); cultures of E. coli,inhibits bacterial growth
"CCCCCCC1OC(=O)CNC(=O)C(C(C)O)NC(=O)C(CO)NC(=O)C(C(C)CC)NC(=O)C(CC(C)C)N(C)C(=O)C1C (stereo not drawn) [Globomycin, globomycin]",resistance of YX23,E. coli YX23 [2],resistant
CCC(C)c1nnc(NC(=O)c2cc(OC)c(OC)cc2[N+](=O)[O-])s1 (stereo not drawn) [Sk061-69-2],IC50,"Lsp from E. coli; Table 2, variation of R3",8.7 µM
COc1cc(C(=O)Nc2nnc(C(C)(C)C)s2)c([N+](=O)[O-])cc1OC [Sk061-69-3],IC50,"Lsp from E. coli; Table 2, variation of R3",36 µM
CCCCC(CC)c1nnc(NC(=O)c2cc(OC)c(OC)cc2[N+](=O)[O-])s1 (stereo not drawn) [Sk061-69-4],IC50,"Lsp from E. coli; Table 2, variation of R3",2.5 µM
CCC(CC)c1nnc(NC(=O)c2cc(Cl)c(OCCCNC(=O)OC(C)(C)C)cc2[N+](=O)[O-])s1 [Sk061-80-1],IC50,Lsp from E. coli; [4],1.7 µM
CCC(CC)c1nnc(NC(=O)c2cc(Cl)c(OCCCCNC(=O)OC(C)(C)C)cc2[N+](=O)[O-])s1 [Sk061-80-2],IC50,Lsp from E. coli; [4],1.6 µM
CCC(CC)c1nnc(NC(=O)c2cc(Cl)c(OC3CCN(C(=O)OC(C)(C)C)CC3)cc2[N+](=O)[O-])s1 [Sk061-80-4],IC50,Lsp from E. coli; [4],1.1 µM
CCC(CC)c1nnc(NC(=O)c2cc(Cl)c(OC3CCCN(C(=O)OC(C)(C)C)C3)cc2[N+](=O)[O-])s1 (stereo not drawn) [Sk061-80-5],IC50,Lsp from E. coli; [4],0.83 µM
CCC(CC)c1nnc(NC(=O)c2ccc(C(F)(F)F)cc2[N+](=O)[O-])s1 [Z123635394],IC50,Lsp from E. coli; Table 4,9.3 µM
"COCCCOc1cc(C[C@@H](C[C@H](N)[C@@H](O)C[C@H](C(=O)NCC(C)(C)C(N)=O)C(C)C)C(C)C)ccc1OC [aliskiren, reference compound]",inhibition of E. coli Lsp by known aspartic acid protease inhibitors,Lsp from E. coli,no known aspartic acid protease inhibitors
"COC(=O)N[C@H](C(=O)N[C@@H](Cc1ccccc1)[C@@H](O)CN(Cc1ccc(-c2ccccn2)cc1)NC(=O)[C@@H](NC(=O)OC)C(C)(C)C)C(C)(C)C [atazaniavir, reference compound]",inhibition of E. coli Lsp by known aspartic acid protease inhibitors,Lsp from E. coli,no known aspartic acid protease inhibitors
"O=S(=O)(N[C@H](CO)C(C(F)(F)F)C(F)(F)F)c1ccc(Cl)s1 [begacestat, reference compound]",inhibition of E. coli Lsp by known aspartic acid protease inhibitors,Lsp from E. coli,no known aspartic acid protease inhibitors
CCCC1OC(=O)C(C)CC(C)CCCCC(=O)CCCC(CC)/C=C/C=C(\COC)CCC(O)C(O)CC(O)CNC1=O (stereo not drawn) [myxovirescin],resistance of YX23,E. coli YX23 [2],resistant
"CC(C)CC(=O)N[C@H](C(=O)N[C@H](C(=O)N[C@@H](CC(C)C)[C@@H](O)CC(=O)N[C@@H](C)C(=O)N[C@@H](CC(C)C)[C@@H](O)CC(=O)O)C(C)C)C(C)C [pepstatin, reference compound] (Isovaleryl-VV[Sta]A[Sta]-OH)",inhibition of E. coli Lsp by known aspartic acid protease inhibitors,Lsp from E. coli,no known aspartic acid protease inhibitors
"CC(C)(C)NC(=O)[C@@H]1C[C@@H]2CCCC[C@@H]2CN1C[C@@H](O)[C@H](Cc1ccccc1)NC(=O)[C@H](CC(N)=O)NC(=O)c1ccc2ccccc2n1 [saquinavir, reference compound]",inhibition of E. coli Lsp by known aspartic acid protease inhibitors,Lsp from E. coli,no known aspartic acid protease inhibitors
"CC(C)[C@H](O)C(=O)N[C@@H](C)C(=O)N[C@@H]1C(=O)N(C)CCc2ccccc21 [semagacestat, reference compound]",inhibition of E. coli Lsp by known aspartic acid protease inhibitors,Lsp from E. coli,no known aspartic acid protease inhibitors
"N-(5-buty-1,3,4-oxadiazol-2-yl)-4,5-dimethoxy-2-nitrobenzamide [1e]","potency against Lsp, in words (SAR)",Lsp from E. coli,inactive
same,IC50,Lsp from E. coli; [3],> 400 µM
